This is an account of results in patent US10188107B2 (Heinrich Heine Universität Düsseldorf, priority 2013, dated 2019).

The first test has as its target T1, PEP carboxylase from F. trinervia (C4 PEPC) (Flaveria trinervia, UniProt P30694).
T1 construct: histidine tag; made in house; host or cells: E. coli
T1 sequence (P30694 1-966): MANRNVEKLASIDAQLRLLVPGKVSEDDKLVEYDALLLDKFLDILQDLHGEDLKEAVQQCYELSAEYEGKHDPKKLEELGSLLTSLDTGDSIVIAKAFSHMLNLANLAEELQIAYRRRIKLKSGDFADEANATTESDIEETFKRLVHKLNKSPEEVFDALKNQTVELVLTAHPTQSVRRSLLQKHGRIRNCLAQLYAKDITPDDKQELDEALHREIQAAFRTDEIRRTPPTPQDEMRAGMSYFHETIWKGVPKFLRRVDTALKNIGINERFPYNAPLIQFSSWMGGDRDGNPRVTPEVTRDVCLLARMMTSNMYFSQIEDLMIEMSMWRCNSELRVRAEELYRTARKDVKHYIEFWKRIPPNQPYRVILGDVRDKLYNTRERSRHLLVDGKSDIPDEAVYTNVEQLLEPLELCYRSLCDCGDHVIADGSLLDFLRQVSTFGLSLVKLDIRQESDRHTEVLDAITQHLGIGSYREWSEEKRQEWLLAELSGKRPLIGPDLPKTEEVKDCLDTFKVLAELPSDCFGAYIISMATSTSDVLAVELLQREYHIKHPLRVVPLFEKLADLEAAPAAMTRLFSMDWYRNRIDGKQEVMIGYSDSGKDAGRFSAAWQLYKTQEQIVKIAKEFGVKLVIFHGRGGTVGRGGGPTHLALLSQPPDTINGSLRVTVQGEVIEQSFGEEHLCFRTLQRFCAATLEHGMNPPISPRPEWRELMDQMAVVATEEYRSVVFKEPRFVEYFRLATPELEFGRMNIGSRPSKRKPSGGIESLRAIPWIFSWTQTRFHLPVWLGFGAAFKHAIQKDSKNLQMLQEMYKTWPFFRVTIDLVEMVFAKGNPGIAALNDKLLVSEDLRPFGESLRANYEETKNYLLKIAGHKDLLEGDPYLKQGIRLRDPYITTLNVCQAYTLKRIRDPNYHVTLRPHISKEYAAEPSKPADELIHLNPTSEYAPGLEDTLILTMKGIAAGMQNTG
Briefly: Spectrophotometric coupled assay with malate dehydrogenase, C4 PEP carboxylase. The class given is biochemical. Particulars: range of concentrations, triplicate; C3 PEPC activity compared at the C4 IC50 concentration (figure legend). The source says: How to determine the activity of a PEP carboxylase is well known in the art. E.g, the formation of oxaloacetate can be determined spectrophotometrically, e.g., in a malate dehydrogenase coupled system. The reaction velocity can be measured as a decrease in A340 resulting from the oxidation of NADH.
Inhibition of purified PEP carboxylases from F. pringlei and F. trinervia by compounds selected from the VDS was monitored by a spectrophotometric coupled assay with malate dehydrogenase which reduces the oxaloacetate formed by PEP carboxylase to malate. The simultaneous oxidation of NADH is followed at 340 nm with standard optical equipment. The concentration of the inhibitors selected from the VDS was varied in the coupled assay to determine the half maximal inhibitory concentration (IC50).
With `O=C(O)c1cc(/C=C/c2cc(O)ccc2O)ccc1O` [1-(3′-carboxy-4′-hydroxyphenyl)-2-(2,5-dihydroxyphenl(ethene)], the “Inhibition of a C4-PEPC” value is listed as “Selective inhibition”.

In the case of `COc1cc2ncc(-c3ccc(O)c(O)c3)nc2cc1OC` [2-(3,4-Dihydroxyphenyl)-6,7-dimethoxyquinoxaline], the “Inhibition of a C4-PEPC” value is listed as “Inhibition”.

Take `O=C(/C=C/c1ccc(O)c(O)c1)c1ccc(O)cc1O` [butein]: the “Inhibition of a C4-PEPC” value is on record as “Selective inhibition”.

catechin: the “Inhibition of a C4-PEPC” value is recorded as “Inhibition”.

The next test has as its target pyruvate phosphate dikinase (PPDK).
Assay: not given
As to conditions: isolated enzyme; read-out: half maximal inhibitory concentration (IC50); cited from earlier work.
Regarding `C/C=C(\C)c1cc(O)c(C)c2c1Oc1cc(O)cc(C)c1C(=O)O2` [unguinol], the IC50 is 40 µM.

In a further test the test system is PEP carboxylase from C4 plant Amaranthus viridis.
Assay: not given
Particulars: cited from earlier work.
For the molecule `O=c1c(O)c(-c2cc(O)c(O)c(O)c2)oc2cc(O)cc(O)c12` [myricetin], the “inhibition of PEP carboxylase from Amaranthus viridis” value (shortened to “inhibition of PEP carboxylase”) was “inhibited”.

Turning to `O=c1c(O)c(-c2ccc(O)c(O)c2)oc2cc(O)ccc12` [fisetin], the “inhibition of PEP carboxylase” value was “inhibited”.

For the molecule `O=c1c(O)c(-c2ccc(O)cc2O)oc2cc(O)cc(O)c12` [morin], the “inhibition of PEP carboxylase” value is recorded as “inhibited”.

As to `O=c1c(O)c(-c2ccc(O)c(O)c2)oc2cc(O)cc(O)c12` [quercetin], the “inhibition of PEP carboxylase” value is listed as “inhibited”.

Take baicalein/baicalin: the “inhibition of PEP carboxylase” value is given as “inhibited”.

With `O=c1c(O)c(-c2ccc(O)cc2)oc2cc(O)cc(O)c12` [kaempferol], the “inhibition of PEP carboxylase” value is reported as “inhibited”.
